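How tested: cells in 96-well plates exposed to compound for 48 hours at five concentrations. Here, GI50 denotes the concentration required for 50% inhibition of growth.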 The source made the active and inactive calls. Cut-off read from the data, not from the text of the source: active = GI50 up to about 1.1 µM and inactive = higher. Starred links: 1 amine or outer side, 2 acyl side, 3 side chain; linkers in the order of their positions; H or OH if unused. Non-standard residues stand in square brackets, D forms with d. Residues, ends and D or L forms follow the SMILES beside them. X4 = C[C@H](N[*:1])C(=O)C(C)(C)C(=O)[*:2]; Hmpa(2S,3S) = CC[C@H](C)[C@H](O)C(=O)O; NMeY = CN[C@@H](Cc1ccc(O)cc1)C(=O)O; NMeL = CN[C@@H](CC(C)C)C(=O)O; NMeV = CN[C@H](C(=O)O)C(C)C; βAla = NCCC(=O)O
How the values were obtained:
Test in all cases: inhibition of tumour cell growth, NCI panel, 48 h
A498 = system: A498
BT-549 = system: BT-549
IGROV-1 = system: IGROV-1
A549 = system: A549
RXF 393 = system: RXF 393
HOP-92 = system: HOP-92
SK-OV-3 = system: SK-OV-3
CAKI-1 = system: CAKI-1
HCT-15 = system: HCT-15
MDA-N = system: MDA-N
MDA-MB-231 = system: MDA-MB-231
RPMI-8226 = system: RPMI-8226
U-251 = system: U-251
OVCAR-5 = system: OVCAR-5
HL-60 = system: HL-60
TK-10 = system: TK-10
UACC-257 = system: UACC-257
SF-539 = system: SF-539

Compound | GI50 (A498) | GI50 (BT-549) | GI50 (IGROV-1) | GI50 (A549) | GI50 (RXF 393) | GI50 (HOP-92) | GI50 (SK-OV-3) | GI50 (CAKI-1) | GI50 (HCT-15) [µM] | GI50 (MDA-N) | GI50 (MDA-MB-231) | GI50 (RPMI-8226) | GI50 (U-251) | GI50 (OVCAR-5) | GI50 (HL-60) | GI50 (TK-10) | GI50 (UACC-257) | GI50 (SF-539)
O=C(O)CCC(=O)Nc1ccc2ccccc2c1 | > 100 µM (inactive) | > 100 µM (inactive) | > 100 µM (inactive) | > 100 µM (inactive) | > 100 µM (inactive) | > 100 µM (inactive) | > 100 µM (inactive) | > 100 µM (inactive) | > 100 | > 100 µM (inactive) | > 100 µM (inactive) | > 100 µM (inactive) | > 100 µM (inactive) | > 100 µM (inactive) | > 100 µM (inactive) | > 100 µM (inactive) | > 100 µM (inactive) | 
CC(CSC(=N)N)C(N)=O (configuration not stated) | > 100 µM (inactive) | > 100 µM (inactive) | > 100 µM (inactive) | > 100 µM (inactive) | > 100 µM (inactive) | > 100 µM (inactive) | > 100 µM (inactive) | > 100 µM (inactive) | > 100 | > 100 µM (inactive) | > 100 µM (inactive) | > 100 µM (inactive) | > 100 µM (inactive) | > 100 µM (inactive) | > 100 µM (inactive) | > 100 µM (inactive) | > 100 µM (inactive) | 
O=C(O)CCN1CCN(CCC(=O)O)CCN(CCC(=O)O)CC1 | > 100 µM (inactive) | > 100 µM (inactive) | > 100 µM (inactive) | 69.3 µM (inactive) |  | > 100 µM (inactive) | > 100 µM (inactive) | > 100 µM (inactive) | 91.2 | > 100 µM (inactive) | > 100 µM (inactive) | 83.4 µM (inactive) | > 100 µM (inactive) | > 100 µM (inactive) | 25.5 µM (inactive) | > 100 µM (inactive) | > 100 µM (inactive) | > 100 µM (inactive)
N#Cc1nnn(C2CCCCC2)c1O | > 100 µM (inactive) | > 100 µM (inactive) | > 100 µM (inactive) | > 100 µM (inactive) | > 100 µM (inactive) |  | > 100 µM (inactive) | > 100 µM (inactive) | > 100 | > 100 µM (inactive) | > 100 µM (inactive) | 10 µM (inactive) | > 100 µM (inactive) | > 100 µM (inactive) | > 100 µM (inactive) | > 100 µM (inactive) | > 100 µM (inactive) | > 100 µM (inactive)
Cc1c2c(OCC3CCCCO3)nn(C)c(=O)c2c(C)n1-c1ccccc1 (configuration not stated) | 14.9 µM (inactive) | 19.7 µM (inactive) | 18.4 µM (inactive) | 17.5 µM (inactive) | 16 µM (inactive) | 18 µM (inactive) | 18.3 µM (inactive) | 21.5 µM (inactive) | 17.1 | 19.5 µM (inactive) | 17.7 µM (inactive) | 31.3 µM (inactive) | 17.4 µM (inactive) | 17.4 µM (inactive) |  | 20.6 µM (inactive) | 18.6 µM (inactive) | 20 µM (inactive)
Cc1nc2ccccc2c(=O)n1NC(=O)c1ccc([N+](=O)[O-])cc1 | 56.4 µM (inactive) | > 100 µM (inactive) | > 100 µM (inactive) | > 100 µM (inactive) | > 100 µM (inactive) | > 100 µM (inactive) | > 100 µM (inactive) |  |  | > 100 µM (inactive) | > 100 µM (inactive) | > 100 µM (inactive) | > 100 µM (inactive) | > 100 µM (inactive) | > 100 µM (inactive) | > 100 µM (inactive) | > 100 µM (inactive) | > 100 µM (inactive)
CC[C@H](C)[C@@H]1OC(=O)CCNC(=O)[C@@H](C)NC(=O)C(C)(C)C(=O)[C@H](C)NC(=O)[C@H](Cc2ccc(OC)cc2)N(C)C(=O)[C@H](C(C)C)N(C)C(=O)CNC(=O)[C@H](CC(C)C)N(C)C(=O)CNC1=O (cyclo(G[NMeL]G[NMeV][NMeY](Me)[X4][dA][βAla][Hmpa(2S,3S)])) | 1.38 µM (inactive) | 2.81 µM (inactive) | 0.697 µM (active) | 0.37 µM (active) | 0.733 µM (active) | 0.665 µM (active) | 0.294 µM (active) | 1.53 µM (inactive) | 1.63 | 0.299 µM (active) | 0.476 µM (active) | 0.0726 µM (active) | 0.0855 µM (active) | 0.724 µM (active) |  | 1.67 µM (inactive) | 0.218 µM (active) | 0.252 µM (active)
O=C(O)CSc1cc(-c2ccccc2)nc2ccccc12 | 28.5 µM (inactive) | 32 µM (inactive) | 57.7 µM (inactive) | 55.5 µM (inactive) | 27.4 µM (inactive) | 72.3 µM (inactive) |  | 67.5 µM (inactive) | 43.6 | 35.6 µM (inactive) | 98.9 µM (inactive) |  | 32.5 µM (inactive) | > 100 µM (inactive) | 22.2 µM (inactive) | 64.1 µM (inactive) | 71.9 µM (inactive) | 
O=C(O)c1cnc(-n2[nH]c3c(c2=O)CCCC3)[nH]c1=O | > 100 µM (inactive) | > 100 µM (inactive) | > 100 µM (inactive) | > 100 µM (inactive) |  | 83.9 µM (inactive) | > 100 µM (inactive) | > 100 µM (inactive) | > 100 | > 100 µM (inactive) | > 100 µM (inactive) | > 100 µM (inactive) | > 100 µM (inactive) | > 100 µM (inactive) | > 100 µM (inactive) | > 100 µM (inactive) | > 100 µM (inactive) | > 100 µM (inactive)
O=c1c2sc(=S)n(-c3ccc(F)cc3)c2ncn1/N=C/c1ccc(F)cc1F | 19.3 µM (inactive) | 15.4 µM (inactive) | 24.6 µM (inactive) | 46 µM (inactive) | 15.8 µM (inactive) | 11 µM (inactive) | 25.4 µM (inactive) | 14.4 µM (inactive) | 88.9 | > 100 µM (inactive) | 21.1 µM (inactive) | 52.2 µM (inactive) | 23.4 µM (inactive) | 32.2 µM (inactive) | 22.8 µM (inactive) | 18.1 µM (inactive) | 34.9 µM (inactive) | 
N#Cc1c(N)nc2c(/N=N\c3ccccc3)c(N)nn2c1Nc1ccccc1 | 21.7 µM (inactive) | 23.9 µM (inactive) | 10.9 µM (inactive) | 21.1 µM (inactive) | 13.1 µM (inactive) | 14.6 µM (inactive) |  | 8.93 µM (inactive) | 23.6 | 15.6 µM (inactive) | 16 µM (inactive) | 3.56 µM (inactive) | 10.2 µM (inactive) | 26.7 µM (inactive) | 2.52 µM (inactive) | 22.3 µM (inactive) | 18.7 µM (inactive) | 21.6 µM (inactive)
C1=C2C3=[N+](CCCC3)CC2Cc2ccsc21 (configuration not stated) | 52.8 µM (inactive) | 81.3 µM (inactive) | > 100 µM (inactive) | 25 µM (inactive) | 65 µM (inactive) | 69.5 µM (inactive) | > 100 µM (inactive) | > 100 µM (inactive) | > 100 | > 100 µM (inactive) | > 100 µM (inactive) |  | 28.7 µM (inactive) | > 100 µM (inactive) | 76.2 µM (inactive) | 87.7 µM (inactive) | 33.9 µM (inactive) | 
CN(C)c1ccc(/C=C/c2nc3ccccc3s2)cc1 | > 100 µM (inactive) | 80 µM (inactive) | > 100 µM (inactive) | > 100 µM (inactive) | > 100 µM (inactive) | > 100 µM (inactive) | > 100 µM (inactive) |  | > 100 | > 100 µM (inactive) | > 100 µM (inactive) | > 100 µM (inactive) | > 100 µM (inactive) | > 100 µM (inactive) | 6.08 µM (inactive) | > 100 µM (inactive) | > 100 µM (inactive) | > 100 µM (inactive)
Cc1ccccc1-n1c(=O)nc2n(-c3ccc(C(C)(C)C)cc3)c3ccccc3cc-2c1=O | 30.5 µM (inactive) | 25.7 µM (inactive) | 24.3 µM (inactive) | 31.3 µM (inactive) | 21.8 µM (inactive) | 21.4 µM (inactive) |  | 23.9 µM (inactive) | 16.6 | 22.6 µM (inactive) | 19 µM (inactive) | 24.2 µM (inactive) | 15 µM (inactive) | 25.9 µM (inactive) | 20.3 µM (inactive) | 37.7 µM (inactive) | 17.2 µM (inactive) | 17.8 µM (inactive)
COc1cc2ccc1OCc1cccc(n1)COc1ccc(cc1OC)/C=N\c1ccc(cc1)-c1ccc(cc1)/N=C\2 | > 100 µM (inactive) | > 100 µM (inactive) | > 100 µM (inactive) | > 100 µM (inactive) | 71.6 µM (inactive) | > 100 µM (inactive) | > 100 µM (inactive) | > 100 µM (inactive) | > 100 | > 100 µM (inactive) | > 100 µM (inactive) |  | > 100 µM (inactive) |  | > 100 µM (inactive) | > 100 µM (inactive) | > 100 µM (inactive) | > 100 µM (inactive)
Cc1cccc(N2CCN(S(=O)(=O)c3ccc(Cl)cc3)C2=N)c1C | > 100 µM (inactive) | > 100 µM (inactive) | 25.1 µM (inactive) | > 100 µM (inactive) | > 100 µM (inactive) |  | > 100 µM (inactive) | > 100 µM (inactive) |  | > 100 µM (inactive) | > 100 µM (inactive) | > 100 µM (inactive) | > 100 µM (inactive) | > 100 µM (inactive) |  | > 100 µM (inactive) | > 100 µM (inactive) | > 100 µM (inactive)
CCOc1cccc(/C=N/N=C2\C(=O)Nc3c(Cl)cc(Cl)cc32)c1O | 36.6 µM (inactive) | 39.6 µM (inactive) | 74.8 µM (inactive) | > 100 µM (inactive) | > 100 µM (inactive) | 75.7 µM (inactive) | > 100 µM (inactive) | > 100 µM (inactive) | 54.6 | 45.7 µM (inactive) | 37.2 µM (inactive) |  | 46.5 µM (inactive) | > 100 µM (inactive) | 33.4 µM (inactive) | > 100 µM (inactive) | > 100 µM (inactive) | 53.6 µM (inactive)

Reference: ChEMBL document CHEMBL1201862, “PubChem BioAssay data set” (2004)
